Measured values as given in US20260240885A1, “PHOSPHORYLATED HEXAACYL DISACCHARIDES FOR TREATING OR PREVENTING ACUTE KIDNEY INJURY” (VANDERBILT UNIVERSITY, priority 2022, published 2026).
Entries after “also recorded” stand apart in the source; their conditions may differ.

What was measured:
bilateral IRI-AKI = assay: Bilateral IRI-AKI (bilateral renal pedicle clamping 24 min) in mice pretreated with PHAD; format: in vivo, mouse (male BALB/c)
Experimental: (§1) A blinded, randomized controlled study in mice, assessed the efficacy of intravenous 3D 6-Acyl phosphorylated hexa-acyl disaccharide (PHAD, a de novo ultrapure synthetic toll-like receptor 4 agonist), to protect against IRI-AKI. Two cohorts of male BALB/c mice received intraperitoneal vehicle or PHAD (10, 20, or 40 μg); or intravenous vehicle or PHAD (2, 20, or 200 μg) at 48 and 24 hours prior to unilateral renal pedicle clamping and simultaneous contralateral nephrectomy (unilateral IRI-AKI). In a separate cohort, mice were treated with vehicle or 200 μg of PHAD followed by bilateral IRI-AKI. Mice were monitored for 3 days after reperfusion and euthanized.
(§2) Kidney function was assessed by blood urea nitrogen (BUN) and serum creatinine measurements. Kidney tubular injury was assessed by semi-quantitative analysis of tubular morphology on PAS-stained kidney sections, and kidney mRNA quantification of injury (N-Gal, Kim-1 and HO-1) and inflammation (IL-6, IL-1b and TNF-α) using qRT-PCR technique. Additional studies were conducted using immunohistochemistry to quantify Kim-1 and F4/80 protein to assess kidney injury and macrophages, respectively. […] Histological injury and N-Gal mRNA were lower, and IL-1b mRNA higher in 200 μg 3D 6-Acyl PHAD treated mice.
(§3) Ischemia Reperfusion Induced Acute Kidney Injury. Male BALB/c mice, 10- to 11-weeks old (22 to 25 g) were purchased from Charles River (Hollister, CA), and were allowed to acclimate for one week prior to studies. IRI-AKI surgery was performed under ketamine/xylazine anesthesia (120 mg/kg [3 mg ketamine], 12 mg/kg [0.3 mg] xylazine) administered in 100 μl sterile saline by intraperitoneal (IP) injection. Mice underwent two types of surgery to induce IRI-AKI. Unilateral IRI-AKI with contralateral nephrectomy (unilateral IRI), and in separate cohorts, bilateral IRI-AKI. For unilateral IRI, the mouse was placed prone on a heat pad set to 37° C., and incisions were made in the muscle and skin to exteriorize the right kidney for nephrectomy. The adrenal gland was displaced from the kidney, and 5-0 silk suture (Ethicon, LA53G) was tied around the renal artery, vein, and ureter with a double surgical knot, before the kidney was removed by cutting distally to the knot. The left kidney was then exteriorized, and fat and connective tissue were dissected from the renal pedicle to expose the renal artery and vein. A vascular clamp (Roboz, cat #RS-5459) was applied to the renal vasculature for 28 minutes. The kidney was tucked back under the skin and the mouse was kept warm on the heat pad during the 28 minutes of ischemia time. For bilateral IRI-AKI, mice underwent bilateral renal artery ischemia for 24 minutes without nephrectomy. Successful ischemia was confirmed by a dark purple appearance of the kidney prior to clamp removal, and successful reperfusion was confirmed by a return to the normal pink color of the kidney within 1-2 min of clamp removal. Upon removing the vascular clamp, the muscle wall was closed with 6-0 absorbable suture (Ethicon, J492G) followed by skin closure with 7 mm wound clips (Roboz, RS-9255, RS-9250). Upon skin closure, mice received 0.5 ml of warm sterile saline subcutaneous (SQ) immediately after surgery, and at 24 hours after surgery. Analgesia was provided with buprenorphine SQ immediately after surgery and every 12 hours for 3 days. Sham operated mice underwent the same surgical approaches (for unilateral IRI-AKI, they underwent right nephrectomy, but the left renal pedicle was not clamped, and for bilateral IRI-AKI, both kidneys were exteriorized but the renal pedicles were not clamped). Blood was collected at baseline (prior to injury), and days 1 and 3 after injury by submandibular vein puncture into a lithium-heparin coated microcuvette tubes, and plasma frozen at −80° C. for blood urea nitrogen (BUN) and creatinine assays. […]

unilateral IRI-AKI = assay: Unilateral IRI-AKI (left renal pedicle clamping 28 min with contralateral nephrectomy) in mice pretreated with PHAD; format: in vivo, mouse (male BALB/c)
Experimental: as §1, §2, §3

[1] = IV PHAD 200 μg/mouse 48 and 24 h before injury, 24 and 72 hours after bilateral IRI-AKI (FIG. 2A)
[2] = IV PHAD 200 μg/mouse vs vehicle, Day 3 (FIG. 2F)
[3] = IV PHAD 200 μg/mouse vs vehicle, Day 3 (FIG. 3)
[4] = IV PHAD 2, 20, 200 μg/mouse 48 and 24 h before injury, vs vehicle, post-injury day 1 and 3 (FIG. 1A)

CCCCCCCCCCCCCC(=O)OC(CCCCCCCCCCC)CC(=O)NC1C(O)OC(COC2OC(CO)C(OP(=O)(O)O)C(OC(=O)CC(CCCCCCCCCCC)OC(=O)CCCCCCCCCCCCC)C2NC(=O)CC(CCCCCCCCCCC)OC(=O)CCCCCCCCCCCCC)C(O)C1O.N (stereo not shown) [PHAD, monophosphoryl hexa-acyl Lipid A, 3-Deacyl 6-acyl phosphorylated hexa-acyl disaccharide]
BUN levels (bilateral IRI-AKI; [1]): reduced | creatinine levels (bilateral IRI-AKI; [1]): reduced | 3-day survival (bilateral IRI-AKI; IV PHAD 200 μg/mouse vs vehicle (FIG. 6)): no difference in survival | renal IL-1β mRNA (qRT-PCR) (bilateral IRI-AKI; [2]): increased | renal IL-6 mRNA (qRT-PCR) (bilateral IRI-AKI; [2]): no differences | renal Kim-1 mRNA (qRT-PCR) (bilateral IRI-AKI; [2]): no differences | renal N-Gal mRNA (qRT-PCR) (bilateral IRI-AKI; [2]): lower levels | renal Tnf-α mRNA (qRT-PCR) (bilateral IRI-AKI; [2]): no differences | F4/80 staining for renal macrophages (bilateral IRI-AKI; [3]): no difference in F4/80 staining | area of cells expressing Kim-1 protein (immunostaining), outer medulla (bilateral IRI-AKI; [3]): significant reduction; also recorded: significantly reduced | renal expression of Ho-1 mRNA (qRT-PCR) (bilateral IRI-AKI; IV PHAD 200 μg/mouse vs vehicle, Day 3 (FIG. 4A)): reduced | renal Irf-1 mRNA (qRT-PCR) (bilateral IRI-AKI; IV PHAD 200 μg/mouse vs vehicle, Day 3 (FIG. 4B)): no differences in expression | renal Ccl-2 mRNA (qRT-PCR) (bilateral IRI-AKI; IV PHAD 200 μg/mouse vs vehicle, Day 3 (FIG. 4C)): no differences in expression | renal Ccl-3 mRNA (qRT-PCR) (bilateral IRI-AKI; IV PHAD 200 μg/mouse vs vehicle, Day 3 (FIG. 4D)): no differences in expression | tubular injury (PAS-stained sections, outer stripe of outer medulla) (bilateral IRI-AKI; IV PHAD 200 μg/mouse, Day 3 (FIGS. 2B, 2D)): reduced tubular injury | apoptosis (TUNEL, outer stripe of outer medulla) (bilateral IRI-AKI; IV PHAD 200 μg/mouse, Day 3 (FIGS. 2C, 2E)): reduced apoptosis | Histological injury (unilateral IRI-AKI; 200 μg (Example 1)): lower | IL-1b mRNA (unilateral IRI-AKI; 200 μg (Example 1)): higher | renal Kim-1 mRNA expression (qRT-PCR) (unilateral IRI-AKI; 200 μg PHAD, Day 3 (FIG. 1E)): no reduction | renal N-Gal mRNA expression (qRT-PCR) (unilateral IRI-AKI; 200 μg PHAD, Day 3 (FIG. 1E)): reduction in expression | renal N-Gal mRNA expression (qRT-PCR) (unilateral IRI-AKI; 200 μg PHAD, Day 3 (FIG. 1E), listed as 3D 6-Acyl PHAD): lower | survival compared with the vehicle control group (unilateral IRI-AKI; 2 and 20 μg pretreatment dose (FIG. 1D)): more mice survived | BUN levels (unilateral IRI-AKI; [4]): reduced elevations | creatinine levels (unilateral IRI-AKI; [4]): reduced elevations | renal IL-1β mRNA (qRT-PCR) (unilateral IRI-AKI; IV PHAD 2, 20, 200 μg/mouse vs vehicle control (FIG. 1E)): dose-dependent increase | 3-day survival (unilateral IRI-AKI; IV PHAD 2, 20, 200 μg/mouse vs vehicle, log-rank test (FIG. 1D)): no significant improvement in survival | tubular injury in the cortex and OSOM (PAS-stained sections) (unilateral IRI-AKI; IV PHAD, increasing doses, Day 3 after injury (FIGS. 1B, 1C)): reduced tubular injury | renal function (unilateral IRI-AKI; pretreatment with PHAD at 48 and 24 h before unilateral IRI-AKI (Example 1)): dose-dependent preservation of renal function
